The METLIN SMRT retention time set (Domingo-Almenara et al. 2019)

assay: gradient 5% acetonitrile 3 min, to 50% in 2 min, to 85% in 15 min, held 3 min, 100 µL/min; settings: column: Zorbax Extend-C18 2.1 x 50 mm; eluents: water / acetonitrile, 0.1% formic acid
How it was run: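 Data were gathered over 3 months by HPLC coupled to a quadrupole time-of-flight mass spectrometer, operated in positive and negative ionization mode. Mixtures of ~100 pure standards ran on a Zorbax Extend-C18 column (2.1 × 50 mm, 1.8 μm) at 100 μL/min, with water and acetonitrile each containing 0.1% formic acid and dead and dwell volumes of 40 μL and 900 μL. Retention time was read from adduct peaks picked by computer and checked manually.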

RP-LC retention time [s] | SMILES
663 | CC(=O)N1CCc2nn(CC(=O)Nc3ccc(Cl)cc3F)c(=O)cc2C1
532 | CCn1cc(CN2CCC(N3C(=O)C4(CCCCC4)C3c3ccncc3)CC2)c(C)n1 (centres undefined)
604 | CN(C)C1(CC2CC2)CCN(C(=O)C2CCCC2)CC1
963 | CCc1nc(-c2ccc(-c3noc(CNC(=O)c4ccccc4)n3)cc2)cs1
749 | O=[N+]([O-])c1ccccc1S(=O)(=O)Nc1ccc(N2CCOCC2)cc1
1200 | Cc1ccc(S(=O)(=O)c2cnc(N3CCN(c4ccccc4F)CC3)nc2N)cc1C
823 | Cc1ccc(NC(=O)NC2CCN(c3ccccc3)C2=O)c(C)c1 (centres undefined)
954 | Cc1oc2c(c(C)nn2-c2ccccc2)c(=O)c1Cl
962 | Cc1cccc(-n2c(=O)c3c(cc(C)n3C)n(CC(=O)Nc3cccc(Br)c3)c2=O)c1
703 | O=C(c1noc2ccc(S(=O)(=O)N3CCN(c4ccccn4)CC3)cc12)N1CCCCC1
610 | CN(Cc1cc(C(F)(F)F)ccc1Cl)C1CCc2nn(C)c(=O)n2CC1 (centres undefined)
748 | Cc1cccc(NC(=O)N2CCC3(CC2)NC(=O)c2cc(F)ccc2N3C)c1
571 | CCNc1cc(N2CCCC(CCC(=O)N3CCCC(CN4CCCC4)C3)C2)ncn1 (centres undefined)
547 | CC(C)CN1CCN(C(=O)CCC2CCCN(c3cc(NC4CC4)ncn3)C2)CC1 (centres undefined)
838 | CNC(=O)c1c(-c2ccc(F)cc2)oc2cc(N(CCO)S(C)(=O)=O)c(C3CC3)cc12
664 | Cc1ccc(N2CC(c3nc(-c4ccc5c(c4)ncn5C)no3)CC2=O)cc1 (centres undefined)
915 | COc1ccc(Nc2c(-c3ccc(C)cc3)nc3cnc(Br)cn23)cc1OC
987 | Fc1cccc(-c2nn3c(-c4ccc5ccccc5n4)nnc3s2)c1
737 | O=C(Cn1nc2c(N3CCSCC3)nccn2c1=O)Nc1ccc2c(c1)OCCO2
987 | CS(=O)(=O)c1nc2ccc(NS(=O)(=O)c3ccc4c(c3)CCC4)cc2s1
682 | CN(C)CC[C@@H](c1ccc(Br)cc1)c1ccccn1
825 | O=C(Nc1ccccc1)C1CC(=O)N(CCc2c[nH]c3ccc(Cl)cc23)C1 (centres undefined)
942 | CCc1nc(OCC(=O)NCc2cccc(F)c2)c2c(C)c(C)oc2n1

RP-LC retention time [s] | SMILES
842 | CC(C)CN1CCn2cc(S(=O)(=O)Nc3ccc(F)c(F)c3)cc2C1=O
887 | O=C(Cn1cnc2c(sc3nc(-c4ccccc4)ccc32)c1=O)NCc1ccco1
1060 | Cc1ccc(C)c(C(=O)N2CCc3nc(-c4ccc(F)cc4)ncc3C2)c1
848 | N#Cc1ccc(C(=O)NCc2cnoc2-c2ccc(F)cc2)cc1
890 | Cc1oc(-c2[nH]ncc2C(=O)N(C)C)cc1S(=O)(=O)Nc1cc(F)cc(F)c1
942 | CCc1nn2c(CNS(=O)(=O)c3ccc(F)cc3F)c(-c3ccccc3)nc2s1
711 | COc1ccccc1N1CCN(C(=O)C2CCCN(c3nccc4sc(C)cc34)C2)CC1 (centres undefined)
774 | Cc1ccc(NC(=O)N2CCC(c3cc(N)on3)CC2)cc1Cl
693 | CCCNc1cc(N2CCC(CCC(=O)NCCC(C)C)CC2)ncn1
772 | CCn1ncc(NC(=O)c2ccc(F)cc2)c(N2CCOCC2)c1=O
853 | CCOc1ccc(-c2[nH]ncc2CNS(=O)(=O)Cc2ccc(C)cc2)cc1
799 | Cc1cc2c(OCC(CNC(C)(C)C)OC(=O)c3ccccc3)cccc2[nH]1 (centres undefined)
718 | Cc1ccc(-c2cc(C(=O)N3CCN(Cc4ccc5c(c4)OCO5)CC3)c(C)[nH]2)cc1C
880 | COc1cccc(CNC(=O)C2CCCN2S(=O)(=O)c2cc3c(cc2Cl)NC(=O)CO3)c1 (centres undefined)
669 | CC1=C(c2ccccc2)S(=O)(=O)N=C1N1CCCN(C(=O)Nc2ccccc2)CC1
727 | CCOC(=O)NCc1nc(COc2ccc(OC)cc2)no1
970 | CC1CCCN(c2ccc(-c3noc(CN4CCc5ccccc5C4)n3)cn2)C1 (centres undefined)
765 | O=C(c1ccc(Br)o1)N1CCC(c2nnc(-c3ccco3)s2)CC1
681 | CCC1CN2C=Nc3oc(C)c(C(=O)NCc4ccccc4Cl)c3C2=N1 (centres undefined)
964 | O=C(Nc1cccc(F)c1)N1CCCC1c1nc(-c2ccccc2)no1 (centres undefined)
793 | O=C(NCCO)c1cccc(-c2cc(Nc3ccc(OC(F)(F)F)cc3)ncn2)c1
871 | CCc1cc(=O)n(CC(=O)Nc2ccc(C)c(Cl)c2)c(N2CCOCC2)n1
663 | Cc1ccc(NS(=O)(=O)c2cc3n(c2)CCCNC3=O)c(F)c1

RP-LC retention time [s] | SMILES
942 | O=C(c1ccc(-c2nccnc2N2CCCC2)cc1)N1CCN(c2ccccc2)CC1
781 | COc1ccccc1CCC(=O)Nc1cc(-c2cccnc2)no1
648 | Cc1cc(-c2nnc(NC(=O)Cc3ccc4c(c3)OCO4)o2)n(C)n1
930 | COc1ccc(N2C=C(C#N)S(=O)(=O)c3ccc(C)cc32)c(OC)c1
1150 | Cc1ccc(-c2c(C(=O)NCc3ccco3)nc3ccccn23)cc1
1200 | COc1ccc(OC)c(-c2csc(-c3nnn(-c4ccc(Cl)cc4)c3N)n2)c1
1120 | CCOc1ccc(-c2csc(NC(=O)CCc3ccccc3)n2)cc1
860 | c1ccc(-c2csc(Nc3ccccn3)n2)cc1
755 | COc1ccc(-c2cn3c(CC(=O)Nc4ccccc4C(F)(F)F)csc3n2)cc1OC
705 | CC(C)CC(=O)N1CCCC(c2nc(CNC(=O)C(C)C)cs2)C1 (centres undefined)
623 | O=C(O)CCCCCNc1nc(-c2ccccc2)nc2ccccc12
764 | CCOC(=O)CC1(NC(=O)N2CCc3c(c(C(=O)N4CCCC4)nn3C)C2)CCCCC1
1120 | O=C(Cn1nc2c(SC3CCCCC3)nccn2c1=O)Nc1ccc(Br)cc1F
823 | Cn1cnc(S(=O)(=O)N2CCC(C(=O)N3CCN(c4cccc(C(F)(F)F)c4)CC3)CC2)c1
772 | CCc1nnc(-c2ccc(NS(=O)(=O)c3cccs3)cc2)o1
803 | CCc1nnc(NC(=O)c2ccoc2COc2ccc(C)cc2)s1
659 | CCNc1ncnc2sc3c(c12)CCN(Cc1ccncc1)C3
822 | COc1ccccc1CCC(=O)Nc1ccc2c(c1)Sc1ncccc1C(=O)N2C
698 | Cc1cc(C)c2c(N3CCCCC3)nc(C(=O)N3CCC(C)CC3)nc2n1
866 | Cc1ccc(F)cc1S(=O)(=O)N1CCC2(C1)C(=O)Nc1ccccc12 (centres undefined)
590 | CC(C)CC(=O)N1CCN(c2nc(CN3CCOCC3)cs2)CC1
994 | Cc1ccc(-c2ncc(C(=O)Nc3ccc(Br)cc3)c(-c3ccncc3)n2)cc1
590 | CO[C@H]1CN(C2CCN(Cc3cn(C(C)C)c4ccccc34)CC2)[C@H]1c1ccncc1

RP-LC retention time [s] | SMILES
1100 | CC(C)n1c(=O)oc2cc(-c3noc(-c4ccc5cc[nH]c5c4)n3)ccc21
1150 | Cc1ccc(S(=O)(=O)c2cnc(N3CCc4ccccc4C3)nc2N)cc1C
855 | O=C(NCCc1ccc(Cl)cc1)C1CCCN(c2ncnc3c2oc2ccccc23)C1 (centres undefined)
994 | Cc1nc(CC(=O)Nc2nc(-c3ccc(Br)cc3)c(C)s2)cs1
1350 | Cc1ccc(-c2nc(N)n(C(=O)c3ccc(C(C)(C)C)cc3)n2)cc1C
629 | O=C(NCCCN1CCOCC1)c1nc2ccccn2c1-c1ccc(Cl)cc1
753 | COc1ccc(CNC(=O)C2CCCN(c3nnc4ccc(Cl)cn34)C2)c(OC)c1 (centres undefined)
728 | O=C(NCC1CCOCC1)Nc1ccc(F)c(Cl)c1
1090 | Cc1ccc(-c2nc(C3CC(=O)N(c4ccc(F)c(Cl)c4)C3)no2)cc1C (centres undefined)
908 | O=c1oc2cc(O)ccc2cc1-c1cc(F)cc(F)c1
719 | Cc1ccc(-c2ccc(N3CCCC(C(=O)NCc4ccco4)C3)nn2)cc1C (centres undefined)
748 | CCC1(O)CCOC2(CCN(C(=O)CC3CCCC3)CC2)C1 (centres undefined)
751 | COc1ccc(OC)c(NC(=O)N2CCC(OC3CCN(S(C)(=O)=O)CC3)CC2)c1
891 | O=C(c1cccc(Cl)c1)N1CCC(Cc2nnc(-c3ccccc3)o2)CC1
569 | CCNC(=O)N1CC(n2cc(C(=O)N(C)CCCc3c(C)nn(C)c3C)nn2)C1
1100 | COc1cccc(CNC(=O)C2CCCN(c3nccnc3Sc3ccccc3)C2)c1 (centres undefined)
754 | COc1cc([C@H]2Oc3cc([C@@H]4Oc5cc(O)cc(O)c5C(=O)[C@@H]4O)ccc3O[C@@H]2CO)ccc1O
901 | Cc1cc2nc(C(=O)Nc3cccc(C#N)c3)cc(C)n2n1
943 | O=C(NCc1ccccc1)C1CCCN(c2nc3ccsc3c(=O)n2Cc2ccc(F)cc2)C1 (centres undefined)
811 | CSc1ccc(N2C(C)=NS(=O)(=O)c3cccnc32)cc1
